The numbers were not newly measured in PMC7113793 (Antiviral Research, 2017), which cites them from elsewhere.

For series [1], the target named is Citrullus vulgaris urease. The note with it: read-out: Kis.
Another series relates to aldehyde dehydrogenase. To be noted: in vivo.
Series [2] concerns the target Giardia lamblia carbamate kinase.

With `O=C(O)CN(CCN(CC(=O)O)CC(=O)O)CC(=O)O` [EDTA], the “loss of PL^pro activity” value in the series on PL^pro was 62%.

As for `CCN(CC)C(=S)SSC(=S)N(CC)CC` [disulfiram], the Ki in series [1] was 67.6 µM. Also, the “enzyme inhibition as compared to the activity of the control” value in the series with aldehyde dehydrogenase was 77%. Also, the IC50 in series [2] is 0.6 to 1.4 µM.
